Data: patent publication US20100267561A1, “HERBICIDAL PYRIDAZINONE DERIVATIVES” (priority 2007, published 2010)

How the values were obtained:
Format in all cases: in vivo
[1] = system: giant foxtail (Setaria faberi); experiment: Test A pre-/postemergence plant response
Summary of the method: (§1)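 Ratings run 0–100 (100 = complete control), assigned visually against untreated controls roughly 10 days after treatment in a greenhouse. Compounds, formulated in non-phytotoxic solvent containing surfactant, were applied as a soil-directed preemergence spray and concurrently postemergence to one- to two-leaf plants 2–10 cm tall.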

[2] = system: canarygrass (Phalaris minor); experiment: Test A pre-/postemergence plant response
Summary of the method: as §1

[3] = system: barnyardgrass (Echinochloa crus-galli); experiment: Test A pre-/postemergence plant response
Summary of the method: as §1

[4] = system: pigweed (Amaranthus retroflexus); experiment: Test A pre-/postemergence plant response
Summary of the method: as §1

[5] = system: large crabgrass (Digitaria sanguinalis); experiment: Test A pre-/postemergence plant response
Summary of the method: as §1

[6] = system: wheat (Triticum aestivum); experiment: Test A pre-/postemergence plant response
Summary of the method: as §1

corn (Zea mays) = experiment: Test A pre-/postemergence plant response
Summary of the method: as §1

[7] = system: blackgrass (Alopecurus myosuroides); experiment: Test A pre-/postemergence plant response
Summary of the method: as §1

rice (Oryza sativa) = experiment: Test B flooded paddy test plant response
Summary of the method: (§2)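 Rice, umbrella sedge, ducksalad and barnyardgrass at 2-leaf stage; pots flooded to 3 cm, compounds applied into paddy water, depth held throughout. Greenhouse 13 to 15 days, then visual rating vs untreated controls on 0–100 scale (0 no effect, 100 complete control); dash means no test result.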

[8] = system: umbrella sedge (Cyperus difformis); experiment: Test B flooded paddy test plant response
Summary of the method: as §2

[9] = system: barnyardgrass (Echinochloa crus-galli); experiment: Test B flooded paddy test plant response
Summary of the method: as §2

[10] = system: ducksalad (Heteranthera limosa); experiment: Test B flooded paddy test plant response
Summary of the method: as §2

[11] = Postemergence, 31 g ai/ha, 0 to 100 scale (0 no effect, 100 complete control)
[12] = Postemergence, 125 g ai/ha, 0 to 100 scale, 0 no effect, 100 complete control
[13] = Preemergence, 31 g ai/ha, 0 to 100 scale, 0 is no effect, 100 is complete control
[14] = Preemergence, 125 g ai/ha, 0 to 100 scale (0 no effect, 100 complete control)
[15] = Flood (flooded paddy test), 250 g ai/ha, scale 0 to 100, 0 no effect, 100 complete control
[16] = Flood, 62 g ai/ha, scale 0 to 100

Row | SMILES | Plant response rating, Foxtail, Giant [1, 11] | Plant response rating, Foxtail, Giant [1, 12] | Plant response rating, Foxtail, Giant [1, 13] | Plant response rating, Foxtail, Giant [1, 14] | Plant response rating, Canarygrass [2, 11] | Plant response rating, Canarygrass [2, 12] | Plant response rating, Canarygrass [2, 13] | Plant response rating, Canarygrass [2, 14] | Plant response rating, Barnyardgrass [3, 11] | Plant response rating, Barnyardgrass [3, 12] | Plant response rating, Barnyardgrass [3, 13] | Plant response rating, Barnyardgrass [3, 14] | Plant response rating, Pigweed [4, 11] | Plant response rating, Pigweed [4, 12] | Plant response rating, Pigweed [4, 13] | Plant response rating, Pigweed [4, 14] | Plant response rating, Crabgrass, Large [5, 11] | Plant response rating, Crabgrass, Large [5, 12] | Plant response rating, Crabgrass, Large [5, 13] | Plant response rating, Crabgrass, Large [5, 14] | other results
1 | Cc1c(Br)c(-c2ccc(Br)cc2)nn1-c1c(O)cnn(C)c1=O [Compound 70] | 0 | 0 | 0 | 0 | 0 | 0 | 0 | 0 | 0 | 50 | 0 | 0 | 0 | 0 | 0 | 0 | 0 | 0 | 0 | 0 | Plant response rating, Wheat [6, 11]: 0; Plant response rating, Wheat [6, 12]: 0; Plant response rating, Wheat [6, 13]: 0; Plant response rating, Wheat [6, 14]: 0; Plant response rating, Corn (corn (Zea mays); [11]): 0; Plant response rating, Corn (corn (Zea mays); [12]): 20; Plant response rating, Corn (corn (Zea mays); [13]): 0; Plant response rating, Corn (corn (Zea mays); [14]): 0; Plant response rating, Blackgrass [7, 11]: 0; Plant response rating, Blackgrass [7, 12]: 10; Plant response rating, Blackgrass [7, 13]: 0; Plant response rating, Blackgrass [7, 14]: 0
2 | CCc1cc(-c2ccc(C(F)(F)F)cc2)nn1-c1c(OC(=O)c2ccc(Cl)nc2)cnn(C)c1=O [Compound 94] | 100 | 100 | 90 | 100 | 70 | 100 | 70 | 90 | 100 | 100 | 50 | 100 | 0 | 0 | 0 | 0 | 90 | 100 | 70 | 100 | Plant response rating, Wheat [6, 11]: 50; Plant response rating, Wheat [6, 12]: 80; Plant response rating, Wheat [6, 13]: 50; Plant response rating, Wheat [6, 14]: 90; Plant response rating, Corn (corn (Zea mays); [11]): 100; Plant response rating, Corn (corn (Zea mays); [12]): 100; Plant response rating, Corn (corn (Zea mays); [14]): 90; Plant response rating, Blackgrass [7, 11]: 80; Plant response rating, Blackgrass [7, 12]: 100; Plant response rating, Blackgrass [7, 13]: 60; Plant response rating, Blackgrass [7, 14]: 100
3 | Cc1cn(-c2ccc(Cl)cn2)nc1-c1c(O)cnn(C)c1=O [Compound 84] | 0 | 10 | 0 | 0 | 0 | 0 | 0 | 0 | 0 | 0 | 0 | 0 | 0 | 0 | 0 | 0 | 0 | 10 | 0 | 0 | Plant response rating, Rice (rice (Oryza sativa); [15]): 0; Plant response rating, Rice (rice (Oryza sativa); [16]): 0; Plant response rating, Sedge, Umbrella [8, 15]: 0; Plant response rating, Sedge, Umbrella [8, 16]: 0; Plant response rating, Barnyardgrass [9, 15]: 0; Plant response rating, Barnyardgrass [9, 16]: 0; Plant response rating, Ducksalad [10, 15]: 0; Plant response rating, Ducksalad [10, 16]: 0; Plant response rating, Wheat [6, 11]: 0; Plant response rating, Wheat [6, 12]: 0; Plant response rating, Wheat [6, 13]: 0; Plant response rating, Wheat [6, 14]: 0; Plant response rating, Corn (corn (Zea mays); [11]): 0; Plant response rating, Corn (corn (Zea mays); [12]): 0; Plant response rating, Corn (corn (Zea mays); [13]): 0; Plant response rating, Corn (corn (Zea mays); [14]): 0; Plant response rating, Blackgrass [7, 11]: 0; Plant response rating, Blackgrass [7, 12]: 0; Plant response rating, Blackgrass [7, 13]: 0; Plant response rating, Blackgrass [7, 14]: 0
